{
  "source": "ChEMBL document CHEMBL1201862",
  "about": "“PubChem BioAssay data set” (2004)",
  "test_in_all_cases": "DTP human tumour cell line panel, 48 h",
  "key": {"CCRF-CEM": {"tested_on": "CCRF-CEM"}, "HCC 2998": {"tested_on": "HCC 2998"}, "HL-60": {"tested_on": "HL-60"}, "HOP-18": {"tested_on": "HOP-18"}, "HOP-92": {"tested_on": "HOP-92"}, "KM12": {"tested_on": "KM12"}, "NCI-H23": {"tested_on": "NCI-H23"}, "OVCAR-3": {"tested_on": "OVCAR-3"}, "OVCAR-5": {"tested_on": "OVCAR-5"}, "OVCAR-8": {"tested_on": "OVCAR-8"}, "SF-268": {"tested_on": "SF-268"}, "SN12C": {"tested_on": "SN12C"}, "U-251": {"tested_on": "U-251"}, "UO-31": {"tested_on": "UO-31"}, "BT-549": {"tested_on": "BT-549"}, "DU-145": {"tested_on": "DU-145"}, "MCF7": {"tested_on": "MCF7"}, "NCI-H226": {"tested_on": "NCI-H226"}, "PC-3": {"tested_on": "PC-3"}, "T47D": {"tested_on": "T47D"}},
  "note": "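Briefly, cells in 96-well plates were exposed to five compound concentrations for 48 h, and endpoints were estimated by linear interpolation. Abbreviation: GI50, concentration required for 50% inhibition of growth.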 Active and inactive are the calls of the source. Cut-off read from the data, not from the text of the source: active = GI50 up to about 1.1 µM and inactive = higher.",
  "data": [
    {"smiles": "Cc1cc2c(c3nocc13)C(=O)c1ccccc1C2=O", "values": [
      {"measurement": "GI50", "setting": "CCRF-CEM", "value": "> 100 µM (inactive)"},
      {"measurement": "GI50", "setting": "HCC 2998", "value": "> 100 µM (inactive)"},
      {"measurement": "GI50", "setting": "HL-60", "value": "98.2 µM (inactive)"},
      {"measurement": "GI50", "setting": "HOP-18", "value": "> 100 µM (inactive)"},
      {"measurement": "GI50", "setting": "HOP-92", "value": "16.2 µM (inactive)"},
      {"measurement": "GI50", "setting": "KM12", "value": "> 100 µM (inactive)"},
      {"measurement": "GI50", "setting": "NCI-H23", "value": "> 100 µM (inactive)"},
      {"measurement": "GI50", "setting": "OVCAR-3", "value": "> 100 µM (inactive)"},
      {"measurement": "GI50", "setting": "OVCAR-5", "value": "> 100 µM (inactive)"},
      {"measurement": "GI50", "setting": "OVCAR-8", "value": "> 100 µM (inactive)"},
      {"measurement": "GI50", "setting": "SF-268", "value": "> 100 µM (inactive)"},
      {"measurement": "GI50", "setting": "SN12C", "value": "> 100 µM (inactive)"},
      {"measurement": "GI50", "setting": "U-251", "value": "> 100 µM (inactive)"},
      {"measurement": "GI50", "setting": "UO-31", "value": "> 100 µM (inactive)"}
    ]},
    {"smiles": "CCCCCCCCCCCCCC(=O)OC(/C=C/C(C)C)C(O)C(O)C(OC)C(=O)NC1CCCCNC1=O", "note": "(configuration not stated)", "values": [
      {"measurement": "GI50", "setting": "BT-549", "value": "> 10 µM (inactive)"},
      {"measurement": "GI50", "setting": "CCRF-CEM", "value": "0.587 µM (active)"},
      {"measurement": "GI50", "setting": "DU-145", "value": "> 10 µM (inactive)"},
      {"measurement": "GI50", "setting": "HCC 2998", "value": "0.574 µM (active)"},
      {"measurement": "GI50", "setting": "HL-60", "value": "0.9 µM (active)"},
      {"measurement": "GI50", "setting": "HOP-18", "value": "2.23 µM (inactive)"},
      {"measurement": "GI50", "setting": "HOP-92", "value": "1.17 µM (inactive)"},
      {"measurement": "GI50", "setting": "KM12", "value": "0.448 µM (active)"},
      {"measurement": "GI50", "setting": "MCF7", "value": "693 nM (active)"},
      {"measurement": "GI50", "setting": "NCI-H226", "value": "2.39 µM (inactive)"},
      {"measurement": "GI50", "setting": "NCI-H23", "value": "1.2 µM (inactive)"},
      {"measurement": "GI50", "setting": "OVCAR-3", "value": "1.81 µM (inactive)"},
      {"measurement": "GI50", "setting": "OVCAR-5", "value": "3.65 µM (inactive)"},
      {"measurement": "GI50", "setting": "OVCAR-8", "value": "1.02 µM (active)"},
      {"measurement": "GI50", "setting": "PC-3", "value": "> 10 µM (inactive)"},
      {"measurement": "GI50", "setting": "SF-268", "value": "1.52 µM (inactive)"},
      {"measurement": "GI50", "setting": "SN12C", "value": "0.579 µM (active)"},
      {"measurement": "GI50", "setting": "T47D", "value": "> 10 µM (inactive)"},
      {"measurement": "GI50", "setting": "U-251", "value": "0.673 µM (active)"},
      {"measurement": "GI50", "setting": "UO-31", "value": "0.989 µM (active)"}
    ]},
    {"smiles": "Cc1cc2c([nH]c3ccccc32)c2c1OC(C)(C)C1C3CC(C)(C)Oc4c(C)cc5c6ccccc6n(c5c43)C21", "note": "(configuration not stated)", "values": [
      {"measurement": "GI50", "setting": "CCRF-CEM", "value": "> 100 µM (inactive)"},
      {"measurement": "GI50", "setting": "HCC 2998", "value": "> 100 µM (inactive)"},
      {"measurement": "GI50", "setting": "HL-60", "value": "> 100 µM (inactive)"},
      {"measurement": "GI50", "setting": "HOP-18", "value": "> 100 µM (inactive)"},
      {"measurement": "GI50", "setting": "HOP-92", "value": "> 100 µM (inactive)"},
      {"measurement": "GI50", "setting": "KM12", "value": "> 100 µM (inactive)"},
      {"measurement": "GI50", "setting": "NCI-H23", "value": "> 100 µM (inactive)"},
      {"measurement": "GI50", "setting": "OVCAR-3", "value": "> 100 µM (inactive)"},
      {"measurement": "GI50", "setting": "OVCAR-5", "value": "> 100 µM (inactive)"},
      {"measurement": "GI50", "setting": "OVCAR-8", "value": "> 100 µM (inactive)"},
      {"measurement": "GI50", "setting": "SF-268", "value": "> 100 µM (inactive)"},
      {"measurement": "GI50", "setting": "SN12C", "value": "> 100 µM (inactive)"},
      {"measurement": "GI50", "setting": "U-251", "value": "> 100 µM (inactive)"},
      {"measurement": "GI50", "setting": "UO-31", "value": "> 100 µM (inactive)"}
    ]},
    {"smiles": "COC(=O)c1cc2c(c(C(=O)OC)c1O)C(=O)C=CC2=O", "values": [
      {"measurement": "GI50", "setting": "CCRF-CEM", "value": "1.63 µM (inactive)"},
      {"measurement": "GI50", "setting": "HCC 2998", "value": "> 43.1 µM (inactive)"},
      {"measurement": "GI50", "setting": "HOP-18", "value": "4.88 µM (inactive)"},
      {"measurement": "GI50", "setting": "HOP-92", "value": "8.2 µM (inactive)"},
      {"measurement": "GI50", "setting": "KM12", "value": "> 43.5 µM (inactive)"},
      {"measurement": "GI50", "setting": "NCI-H226", "value": "> 9.1 µM (inactive)"},
      {"measurement": "GI50", "setting": "NCI-H23", "value": "> 31.6 µM (inactive)"},
      {"measurement": "GI50", "setting": "OVCAR-3", "value": "> 41.2 µM (inactive)"},
      {"measurement": "GI50", "setting": "OVCAR-5", "value": "> 40.4 µM (inactive)"},
      {"measurement": "GI50", "setting": "OVCAR-8", "value": "> 21.4 µM (inactive)"},
      {"measurement": "GI50", "setting": "SF-268", "value": "> 40.6 µM (inactive)"},
      {"measurement": "GI50", "setting": "SN12C", "value": "> 42.1 µM (inactive)"},
      {"measurement": "GI50", "setting": "U-251", "value": "40.7 µM (inactive)"},
      {"measurement": "GI50", "setting": "UO-31", "value": "> 42.9 µM (inactive)"}
    ]},
    {"smiles": "COc1cc(/C=C/c2ccc(OC)c(OC)c2OC)cc(OC)c1OC", "values": [
      {"measurement": "GI50", "setting": "CCRF-CEM", "value": "22.4 µM (inactive)"},
      {"measurement": "GI50", "setting": "HCC 2998", "value": "13.2 µM (inactive)"},
      {"measurement": "GI50", "setting": "HL-60", "value": "23.1 µM (inactive)"},
      {"measurement": "GI50", "setting": "HOP-18", "value": "17.5 µM (inactive)"},
      {"measurement": "GI50", "setting": "HOP-92", "value": "9.35 µM (inactive)"},
      {"measurement": "GI50", "setting": "KM12", "value": "22 µM (inactive)"},
      {"measurement": "GI50", "setting": "NCI-H226", "value": "17.6 µM (inactive)"},
      {"measurement": "GI50", "setting": "NCI-H23", "value": "23.6 µM (inactive)"},
      {"measurement": "GI50", "setting": "OVCAR-3", "value": "16 µM (inactive)"},
      {"measurement": "GI50", "setting": "OVCAR-5", "value": "15.8 µM (inactive)"},
      {"measurement": "GI50", "setting": "OVCAR-8", "value": "24.9 µM (inactive)"},
      {"measurement": "GI50", "setting": "SF-268", "value": "20.1 µM (inactive)"},
      {"measurement": "GI50", "setting": "SN12C", "value": "21.4 µM (inactive)"},
      {"measurement": "GI50", "setting": "U-251", "value": "16.8 µM (inactive)"},
      {"measurement": "GI50", "setting": "UO-31", "value": "14.1 µM (inactive)"}
    ]},
    {"smiles": "COc1ccc2nc3ccccc3c(NCCCCCN(CCCl)CCCl)c2c1", "values": [
      {"measurement": "GI50", "setting": "BT-549", "value": "0.643 µM (active)"},
      {"measurement": "GI50", "setting": "CCRF-CEM", "value": "0.0151 µM (active)"},
      {"measurement": "GI50", "setting": "DU-145", "value": "0.192 µM (active)"},
      {"measurement": "GI50", "setting": "HCC 2998", "value": "0.108 µM (active)"},
      {"measurement": "GI50", "setting": "HL-60", "value": "< 0.0157 µM (active)"},
      {"measurement": "GI50", "setting": "HOP-18", "value": "0.306 µM (active)"},
      {"measurement": "GI50", "setting": "HOP-92", "value": "0.04 µM (active)"},
      {"measurement": "GI50", "setting": "KM12", "value": "0.0933 µM (active)"},
      {"measurement": "GI50", "setting": "MCF7", "value": "< 10 nM (active)"},
      {"measurement": "GI50", "setting": "NCI-H226", "value": "0.101 µM (active)"},
      {"measurement": "GI50", "setting": "NCI-H23", "value": "0.0863 µM (active)"},
      {"measurement": "GI50", "setting": "OVCAR-3", "value": "0.0675 µM (active)"},
      {"measurement": "GI50", "setting": "OVCAR-5", "value": "0.207 µM (active)"},
      {"measurement": "GI50", "setting": "OVCAR-8", "value": "0.0274 µM (active)"},
      {"measurement": "GI50", "setting": "PC-3", "value": "0.0469 µM (active)"},
      {"measurement": "GI50", "setting": "SF-268", "value": "0.0383 µM (active)"},
      {"measurement": "GI50", "setting": "SN12C", "value": "0.0283 µM (active)"},
      {"measurement": "GI50", "setting": "T47D", "value": "< 0.01 µM (active)"},
      {"measurement": "GI50", "setting": "U-251", "value": "0.0318 µM (active)"},
      {"measurement": "GI50", "setting": "UO-31", "value": "0.0705 µM (active)"}
    ]}
  ]
}
